Results published in patent US7575882B2, “Compositions and methods for identifying modulators of TRPV2” (Janssen Pharmaceutica N. V., priority 2005, dated 2009).
Where two headings read alike, the source gives them in different places.

Experiments:
rat TRPV2 = biological target: T1, rat TRPV2 (Rattus norvegicus, UniProt Q9WUD2, A713V/L151P/T158I); experiment: FLIPR calcium mobilization assay in rat TRPV2-expressing HEK293 cells; format: cell-based
T1 construct: A cDNA fragment encoding the full-length rat TRPV2 was subcloned into pCI-neo; expressed in transfected cells
T1 sequence (Q9WUD2 1-761 L151P/T158I/A713V): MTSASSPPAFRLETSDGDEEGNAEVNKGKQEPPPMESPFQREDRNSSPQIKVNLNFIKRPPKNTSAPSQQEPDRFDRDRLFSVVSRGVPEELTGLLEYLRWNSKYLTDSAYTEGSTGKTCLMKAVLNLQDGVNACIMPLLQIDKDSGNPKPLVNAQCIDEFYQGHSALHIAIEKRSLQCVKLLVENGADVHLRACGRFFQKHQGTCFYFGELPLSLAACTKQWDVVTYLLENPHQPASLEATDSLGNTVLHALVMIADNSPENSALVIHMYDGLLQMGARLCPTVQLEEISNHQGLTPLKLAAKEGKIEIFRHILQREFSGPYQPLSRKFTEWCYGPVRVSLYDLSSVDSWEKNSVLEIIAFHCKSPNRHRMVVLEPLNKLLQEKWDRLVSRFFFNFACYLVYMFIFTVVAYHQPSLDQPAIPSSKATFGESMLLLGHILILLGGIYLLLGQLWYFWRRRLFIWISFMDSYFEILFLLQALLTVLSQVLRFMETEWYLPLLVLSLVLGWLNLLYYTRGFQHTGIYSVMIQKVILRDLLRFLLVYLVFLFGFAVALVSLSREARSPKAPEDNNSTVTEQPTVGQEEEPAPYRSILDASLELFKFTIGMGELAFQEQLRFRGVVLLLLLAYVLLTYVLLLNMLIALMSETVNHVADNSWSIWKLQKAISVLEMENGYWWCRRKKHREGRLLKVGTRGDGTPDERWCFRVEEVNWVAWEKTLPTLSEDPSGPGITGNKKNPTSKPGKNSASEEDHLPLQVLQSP
Experimental: A cDNA fragment encoding the full-length rat TRPV2 was subcloned into pCI-neo (Promega, Madison, Wis.) mammalian expression vector. The expression construct was then transfected into HEK293 cells with FuGene6 transfection reagent (Roche, Indianapolis, Ind.) according to the vendor's protocol. Stable cell lines were selected by growth in the presence of 400 μg/ml G418. Single G418 resistant clones were isolated and purified.
The rat TRPV2-expressing HEK293 cells were seeded in a 384-well plate at a concentration of 5×10^3 cells/well and incubated overnight at 37° C. The following day, the cells were loaded with buffer and calcium dye 3 (Molecular Devices, Sunnyvale, Calif.) in a final volume of 50 μl and incubated for 30 minutes at 37° C./5% CO2 followed by 30 additional minutes at room temperature. The fluorescence intensity was measured by a fluorescent plate reader (FLIPR) before, during and after the addition of test compounds.
All data was normalized to that observed for 100 μM Δ^9-THC.

human TRPV1 = biological target: T2, human TRPV1 (Homo sapiens, UniProt Q8NER1); experiment: FLIPR assay in HEK293 cells expressing human TRPV1; format: cell-based; conditions: Δ^9-THC 240 μM, cannabinol 600 μM, others 120 μM
T2 construct: expressed in transfected cells; host or cells: HEK293
Experimental: A selected number of cannabinoids were also tested against HEK293 cells expressing human TRPV1 and canine TRPM8 in the FLIRP assay.

[1] = system: deletion mutants of rat TRPV2; experiment: Calcium mobilization in HEK293 cells expressing rat TRPV2 deletion mutants; format: cell-based; conditions: mutants lacking N-terminal 20, 32/33, 65/66 or C-terminal 11, 23, 32 residues
From the text: DNA molecules encoding the deletion mutants were amplified by PCR using the rat TRPV2 cDNA as the template. For amino-terminal deletions, a series N-terminal forward primers encoding an initiating methionine in frame with sequences matching adjacent regions of the desired start at residues G21 (mutant N20, SEQ ID NO:11), P33 (N32, SEQ ID NO:12), A66 (N65, SEQ ID NO:13) and V84 (N83, SEQ ID NO:14) paired with a C-terminal reverse primer were used for PCR amplification. While for carboxyl-terminal deletions, a forward N-terminal primer paired with a series C-terminal reverse primers ending at residues R706 (C51, SEQ ID NO:7), P729 (C32, SEQ ID NO:8), P738 (C23, SEQ ID NO:9) and E750 (C11, SEQ ID NO:10) with an in-frame stop codon at the terminal end of the open reading frame were used for amplification. After PCR amplification and purification, the DNA molecules encoding the deletion mutants were subcloned into the pCI-neo mammalian expression vector and the constructs were confirmed by DNA sequencing. […]
The deletion mutant constructs were then transfected into HEK293 cells using Fugene 6 reagent (Roche) as per the manufacturer's instructions. […] Calcium mobilization was triggered using Δ^9-THC or 2-APB or elevated temperature buffer and measured using either FLIPR or FLEX STATION instruments.

[2] = biological target: T3, rat and human TRPV2 chimera RHR (Rattus norvegicus, UniProt Q9WUD2, A398L/D418K/D570G/D595E/E431N/E493A/E569T/E577V/E585D/F395L/F429V/I422A/INS586GN/K566E/L151P/L436T/L450V/L461V/L478F/L485V/L503S/M468I/M492L/N571P/P420Q/P587G/P589Q/Q419K/R460H/R490C/R560Q/R563W/R617H/S416T/S424H/S425L/S504A/S564R/S573A/S592G/T428E/T494I/T576S/T580M/V402I/V409A/V543I/V575E/V581E/V621M/V635I/Y400N); experiment: Calcium mobilization in HEK293 cells expressing TRPV2 chimera RHR; format: cell-based; conditions: transient expression in HEK293
T3 construct: expressed in transfected cells; host or cells: HEK293, transient, pCI-neo
Experimental: The deletion mutant constructs were then transfected into HEK293 cells using Fugene 6 reagent (Roche) as per the manufacturer's instructions. At 24 hours post-transfection, the cells were harvested and replated in fresh DMEM medium supplemented with 10% fetal bovine serum, 100 units/ml penicillin, and 100 μg/ml streptomycin. The cells were distributed onto poly-D-Lysine coated 96-or 384-well plates at a density of approximately 40,000 and 10,000 cells per well, respectively. At approximately 48 hours post-transfection, the medium was removed from the assay plate and replaced with Calcium 3 Dye Buffer (Molecular Devices) using the protocol available from the manufacturer. Calcium mobilization was triggered using Δ^9-THC or 2-APB or elevated temperature buffer and measured using either FLIPR or FLEX STATION instruments.
Based on the predicted topology and primary sequence features of TRPV2, TRPV2 are divided into 3 major domains: 1) the amino-terminal intracellular domain; 2) the transmembrane domain; and 3) the carboxyl-terminal intracellular domain. For a chimera, each domain can be of rat (R) or human (H) origin. Three rat and human TRPV2 chimera were constructed and tested herein. RRH (SEQ ID NO:15) was a chimera comprising rat 1-392 aa, rat 393-646 aa, and human 647-764 aa. RHR (SEQ ID NO:16) was a chimera comprising rat 1-392, human 391-646, and rat 647-761. HRR (SEQ ID NO:17) was a chimera comprising human 1-390, rat 393-646, and rat 647-761.
DNA molecules encoding the three rat and human TRPV2 chimeras were obtained by fusion PCR. First, DNA molecules encoding the desired TRPV2 domains were amplified by PCR using the rat or human TRPV2 cDNA as the template with synthetic primer DNA containing in-frame sequence that overlapped with the other species domain to be linked. After PCR amplification and purification, DNA molecules encoding the desired TRPV2 domains from human and rat were combined and used as templates for fusion PCR with primer DNA matching the 5′ and 3′ end sequences of the coding sequence for the full length TRPV2 chimera. […]

CB2 receptor = conditions: cited from earlier work
[3] = HEK293; read-out: % Response (activation of rat TRPV2)
[4] = 100 μM compound (anandamide 120 μM); normalized to 100 μM Δ^9-THC
[5] = FLIPR, rat TRPV2-expressing HEK293 cells; read-out: EC50 (activation of rat TRPV2)

## CCCn1c(C)c(C(=O)c2cccc3ccccc23)c2ccccc21 [JWH015]
Rat TRPV2; [3]
  Emax at 100 µM: 14%

## CCCCC/C=C\C/C=C\C/C=C\C/C=C\CCCC(=O)Nc1ccc(O)cc1 [AM404]
Rat TRPV2; [3]
  Emax at 100 µM: 6%
Human TRPV1
  activation of TRPV1: activated

## Nabilone
Rat TRPV2; [4]
  % Response (activation of rat TRPV2): 59%

## Cannabidiol
Rat TRPV2; [4]
  % Response (activation of rat TRPV2): 163%
Rat TRPV2; [5]
  EC50: 3.7 µM

## CCCC(C)(C)c1ccc2c(c1)OC(C)(C)[C@@H]1CC=C(C)C[C@@H]21 [JWH-133]
Rat TRPV2; [3]
  Emax at 100 µM: 5%

## C=C(C)[C@@H]1CCC(C)=C[C@H]1c1c(O)cc(C)cc1O [O-1821]
Rat TRPV2; [5]
  EC50: ~20 µM
Rat TRPV2; [3]
  Emax at 100 µM: 95%

## 2-aminoethoxydiphenyl borate [2-APB]
Rat TRPV2; [4]
  % Response (activation of rat TRPV2): 102%
Rat TRPV2; [5]
  EC50: 8 µM
[1]
  response of rat TRPV2 deletion mutants to the compound: still active
[2]
  response of chimera RHR to the compound: active

## C=C(C)[C@@H]1CCC(C)=CC1c1c(OC)cc(C)cc1OC (stereo partly drawn) [O-1918]
Rat TRPV2; [3]
  Emax at 100 µM: 6%

## CCCCC/C=C\C/C=C\C/C=C\C/C=C\CCCC(=O)OC(CO)CO [2-AG, 2-arachidonylglycerol]
Rat TRPV2; [3]
  Emax at 100 µM: 30%
Human TRPV1
  activation of TRPV1: activated
CB2 receptor
  Ki: 1.4 µM

## CCCCCCC(C)(C)c1ccc(C2CC(O)CCC2CCCO)c(O)c1 (stereo not drawn) [CP55,940]
Rat TRPV2; [3]
  Emax at 100 µM: 43%

## CCCCCCC(C)(C)c1cc(O)c2c(c1)OC(C)(C)[C@H]1CC=C(CO)C[C@H]21 [HU-211]
Rat TRPV2; [3]
  Emax at 100 µM: 31%

## CCCCC/C=C\C/C=C\C/C=C\C/C=C\CCCC(=O)NCCO [Anandamide, N-arachidonoylethanolamine]
Rat TRPV2
  activation effect on TRPV2: no or minimal activation effect
Rat TRPV2; [3]
  Emax at 100 µM: 0%
Human TRPV1
  activation of TRPV1: activated
CB2 receptor
  Ki: 1.93 µM

## Cc1cc2cccc3c2n1C(CN1CCOCC1)[C@H](C(=O)c1cccc2ccccc12)O3 (stereo partly drawn) [WIN-55,212-2]
Rat TRPV2; [3]
  Emax at 100 µM: -2%

## CCCCCc1cc(O)c2c(c1)OC(C)(C)c1ccc(C)cc1-2 [Cannabinol]
Rat TRPV2; [5]
  EC50: 77.7 µM
Rat TRPV2; [3]
  Emax at 100 µM: 68%
Human TRPV1
  activation of TRPV1: no significant activation

## Cc1c(C(=O)c2cccc3ccccc23)c2cccc3c2n1C(CN1CCOCC1)CO3 (stereo not drawn) [WIN 55,212-3]
Rat TRPV2; [3]
  Emax at 100 µM: 7%

## CCCCCCC(C)(C)c1cc(OC)c(C2C=C(CO)[C@H]3CC2C3(C)C)c(OC)c1 (stereo partly drawn) [HU-308]
Rat TRPV2; HEK293, read-out: % Response (activation of rat TRPV2)
  Emax at 100 µM: 10%

## C=C(C)[C@@H]1CCC(C)=C[C@H]1c1c(O)cc(O)cc1CCCCC [CAY10429]
Rat TRPV2; [3]
  Emax at 100 µM: 0%

## CCCCCCCCCCCCCCCC(=O)NCCO [PEA, palmitoylethanolamide]
Rat TRPV2; [3]
  Emax at 100 µM: 5%

## C=C(C)[C@@H]1CCC(C)=C[C@H]1C1=C(O)C(=O)C(CCCCC)=CC1=O [HU-331]
Rat TRPV2; [5]
  EC50: ~14 µM
Rat TRPV2; [3]
  Emax at 100 µM: 47%
